Patent US6743436B1, “Anesthetic composition for intravenous injection comprising propofol” (Kuhnil Pharm. Co., Ltd., priority 1999, dated 2004)

What was measured:
albino rat = test: Experiment 7: hemolysis after intravenous injection; assay type: in vivo; conditions: for Af (absorbance of released hemoglobin at 540 nm) / Hemolysis: i.v. over one minute, arterial blood
Method: To determine the hemolysis of the formulation of Example 6, albino rat was incised with scissor at the upper part of left femoral region, at which each of vein and artery was cannulated, and then 10 mg/kg of the formulated drug was intravenously injected over one minute. After 0, 5, 10, 15, 30, 45 and 60 minutes, blood was collected from femoral artery in an amount of 100 μl each time. Blood was obtained after heparin-physiological saline and some blood filled in the catheter were removed few, seconds before collecting blood each time. After blood was collected, a small amount of heparin-physiological saline was introduced into the catheter connecting tube to prevent blood coagulation. 100 μl of the collected blood were mixed with 500 μl of physiological saline and then centrifuged with 3000 rpm for 10 minutes. 100 μl of the supernatant were transferred into microplate and the absorbance of released hemoglobin was measured at 540 nm. Hemolysis (%) was calculated according to the following equation. The control group used 70% propylene glycol (PG) solution.
In the above equation, A100 is the absorbance at the time of 100% hemolysis (100 μl of blood was mixed with 500 μl of water); A0 is the absorbance at the time of 0% hemolysis as the blank (Before injection of the drug, normal blood was mixed with 500 μl of physiological saline for the blank test), and Af is the absorbance of each specimen.

[1] = background statement; cited from earlier work

Row | SMILES | Af (absorbance of released hemoglobin at 540 nm) (albino rat; 5 min.) | Hemolysis (albino rat; 5 min.) | Af (absorbance of released hemoglobin at 540 nm) (albino rat; 10 min.) | Hemolysis (albino rat; 10 min.) | Af (absorbance of released hemoglobin at 540 nm) (albino rat; 15 min.) | Hemolysis (albino rat; 15 min.) | Af (absorbance of released hemoglobin at 540 nm) (albino rat; 30 min.) | Hemolysis (albino rat; 30 min.) | Af (absorbance of released hemoglobin at 540 nm) (albino rat; 45 min.) | Hemolysis (albino rat; 45 min.) | Af (absorbance of released hemoglobin at 540 nm) (albino rat; 60 min.) | Hemolysis (albino rat; 60 min.) | Af (absorbance of released hemoglobin at 540 nm) (albino rat; initial) | Hemolysis (albino rat; initial) | absorbance relative to the formulation of Example 6 (albino rat; i.v., 0-60 min) | hemolysis (in words) (albino rat; i.v., 0-60 min) | octanol water partition coefficient [1] | pKa [1]
1 | CC(O)CO (stereo not drawn) [70% PG, propylene glycol] | 0.086 | 1.94% | 0.091 | 2.06% | 0.067 | 1.47% | 0.038 | 0.76% | 0.047 | 0.98% | 0.041 | 0.84% | 0.081 | 1.82% | 80-90 times | causes hemolysis |  | 
2 | CC(C)c1cccc(C(C)C)c1O [propofol, 2,6-diisopropylphenol] |  |  |  |  |  |  |  |  |  |  |  |  |  |  |  |  | 4.33 | 10.4
